Data set [1] is described as follows: Blood spinal cord barrier opening assessed by Evan's Blue Dye spinal cord uptake quantification. It is filed as in vivo. The conditions noted are these: healthy WT mice. Here is the method: (§1) A 1-cm, 1 MHz planar ultrasound transducer was coupled to the skin with ultrasound coupling gel and positioned to target the lumbar spinal cord. The peak acoustic pressure was 0.5 MPa for tolerance tests in WT mice and 0.35 MPa was sufficient for blood spinal cord disruption assessment and for ALS mouse procedures (FIG. 1). At the beginning of the sonication, 0.2 mL of microbubbles (SonoVue, Bracco®) were injected intravenously. Twenty-four mice were used to test the sonication protocol
Blood spinal cord opening was assessed on 27 WT mice with Evan's Blue Dye (EBD) spinal cord uptake quantification.
(§2) The spinal cord was removed and frozen in liquid nitrogen. • For immunohistological analysis and motor neuron count (fixed tissues), the mice were perfused transcardially with 20 mL PBS then 50 mL of 4% paraformaldehyde in phosphate buffer. The spinal cord was extracted, and placed for 4 hours in 4% paraformaldehyde for post-fixation and then cryopreserved in a 30% sucrose solution in PBS before freezing. Thirty-micron thick transverse sections were cut on a cryostat at −18° C. Floating segments of spinal cord were stored in phosphate buffered saline solution at 4° C. Motor neuron counts were determined on serial sections across the lumbar spinal cords (15-20 sections per animal) after Nissl staining. • For immunostaining, sections were incubated overnight at room temperature with the following antibodies: rabbit anti-Iba1 (1:500 Wako Chemicals), anti-GFAP (1:500 Dako anti GFAP), rat anti-CD4 (1:100, AbD Serotec), rat anti CD3 (1:100, AbD Serotec), rat anti CD8 (1:100, AbD Serotec, rabbit polyclonal to human SOD1 (1:10000, Abcam). Species specific Alexa Fluor 488, 594, 647 (1:1000 Life Technologies) were used as secondary antibodies
GraphPad (GraphPad Software, San Diego, CA) was used for all statistical analysis. Statistical significance was set at p≤0.05. […] A Log-rank P value was calculated with Mantel-Cox test to compare the survival curves and corrected with the Bonferroni coefficient.

In data set [2] the test system is patients suffering from ALS. Conditions: clinical, literature; cited from earlier work.
Data set [3] can be described thus: IGF1 spinal cord uptake quantification (Quantikine ELISA human IGF-1). It is filed as in vivo. The conditions noted are these: healthy WT mice. On the technique in general: In an ELISA, binding on a coated surface is turned into a signal by an enzyme label.
Method: A 1-cm, 1 MHz planar ultrasound transducer was coupled to the skin with ultrasound coupling gel and positioned to target the lumbar spinal cord. […] At the beginning of the sonication, 0.2 mL of microbubbles (SonoVue, Bracco®) were injected intravenously. Twenty-four mice were used to test the sonication protocol
Fourteen sonicated lumbar spinal cord were compared to 15 non-sonicated lumbar spinal cord
GraphPad (GraphPad Software, San Diego, CA) was used for all statistical analysis. Statistical significance was set at p≤0.05. […] Data are represented as Mean+SEM.
Data set [4] relates to SOD1^G93A ALS mice. In words: Histological analysis of spinal cord of the ALS treated mice (immunostaining, motor neuron counts). It is filed as in vivo.
From the text: The onset of disease was defined as the time point at which the mice were at peak weight before they started to lose weight due to progressive motor neuron denervation and muscle wasting, as shown in FIG. 1. The symptomatic stage was defined as the age at which the mice had lost 10% of their maximal weight and is accompanied by gait alterations and failure of hindlimb splaying reflex. This disease stage was followed by progressive paralysis. […] In each group some randomly assigned mice were sacrificed at the symptomatic stage (defined as 10% of weight loss) or at disease end stage for immunohistological analysis.
as §2
GraphPad (GraphPad Software, San Diego, CA) was used for all statistical analysis. Statistical significance was set at p≤0.05. […] Duration of early and late phases between the groups were compared by ANOVA after a normality test and followed by post-hoc Tukey-Kramer Multiple comparison test or Dunnett's multiple comparison test. Motor neuron count, immune activation and SOD1 expression were compared in different group using Kruskall Wallis test. Data are represented as Mean+SEM. Kruskal Wallis non parametric test was used to compare the total number of lymphocytes (CD4 and CD8). Survival analysis (onset disease, end-stage) was performed with Kaplan-Meier statistics. A Log-rank P value was calculated with Mantel-Cox test to compare the survival curves and corrected with the Bonferroni coefficient.

Data set [5] concerns SOD1^G93A ALS mice. In words: Clinical and survival evaluation of treated ALS mice. Format: in vivo. Here is the method:
Eighty Mutant SOD1^G93A female mice modeling ALS [B6.Cg-Tg (SOD1^G93A) 1Gur/J] were purchased from Jackson Laboratories (stock #004435) and 120 wild type control mice (WT), with a C57B16/J genetic background. The animal protocol complied with the European laws for the protection of experimental animals and was approved by the local ethics committee. Mice were maintained on a 12:12 h dark: light cycle with food and water available ad libitum. Moisturized food pellets were supplied when mice became weak. ALS mice were hemizygous for a 12 kb genomic fragment encoding the human wild-type or mutated SOD1 gene under its endogenous promoter. Mice carrying the human SOD1 transgene were identified by PCR screening of tail DNA using mouse SOD1 forward primer (5′-[…]-3′), human SOD1 forward primer (5′-[…]-3′) and mouse and human SOD1 reverse primer (5′-[…]-3′) resulting in a ˜800 bp mouse and a ˜600 bp human SOD1 PCR product.
To represent as close as possible the clinical disease progression in humans, treatment started at the beginning of the disease and not at a presymptomatic stage. SOD1^G93A mice are a particularly severe model in terms of symptoms. The mice quickly become too weak to tolerate general anesthesia, which led us to stop treatments at 135 days of age, or 1 month of treatment (5 sessions). This corresponds approximately to the end of the early phase of the disease.
as §1
Controls and US mice received a subcutaneous injection of 0.9% saline. […]
Muscle strength of mice was assessed by three different motor tests: grip testing, inverted screen testing and wire suspension testing. […]

This is an account of results in patent US20250229073A1, “TRANSIENT DISRUPTION OF THE NEUROVASCULAR BARRIER OF A HUMAN AND USES THEREOF FOR TREATING AMYOTROPHIC LATERAL SCLEROSIS” (SORBONNE UNIVERSITE, priority 2022, published 2025).

For `Cc1cc(-c2ccc(/N=N/c3ccc4c(S(=O)(=O)[O-])cc(S(=O)(=O)[O-])c(N)c4c3O)c(C)c2)ccc1/N=N/c1ccc2c(S(=O)(=O)[O-])cc(S(=O)(=O)[O-])c(N)c2c1O.[Na+].[Na+].[Na+].[Na+]` [EBD, Evan's Blue Dye], the “EBD concentration, sonicated compared to non-sonicated segments” value in data set [1] is recorded as 3.4 times. The “EBD concentration in spinal cord, non-sonicated segments” value in data set [1] (non-sonicated segments) is 41 µg/g. Further, the “EBD concentration in spinal cord, sonicated segments” value in data set [1] (sonicated segments of spinal cord) came to 142 µg/g.
Regarding `Nc1nc2ccc(OC(F)(F)F)cc2s1` [riluzole, 2-amino-6-trifluoromethoxybenzothiazole], the “side effects in ALS patients” value in data set [2] was “asthenia, spasticity and an increase in the transaminase levels”.
For the compound “IGF1: rhIGF1 (Mecasermine, IPSEN Pharma), Insulin-like Growth Factor 1, subcutaneous injection of 500 μg/kg”, in data set [3], the “IGF1 concentration, sonicated compared to non-sonicated” value amounted to 1100 times. The “immunofluorescent area occupied by SOD1, end stage mice” value in data set [4] (disease end stage) was “lowest percentage of SOD1”. For the same compound, the “number of lymphocytes (CD3+) per section” value in data set [4] (end stage, control 11±3.6) came out at 28.5±3.8; in data set [4] (symptomatic stage, control 13±3.5) it was 20±5.3. Besides, the “astrocyte reactivity, immunoreactive area for GFAP” value in data set [4] (stage not given, control 12±2.6, unit from FIG. 4 legend) is 5.9±2.5%. Moreover, in data set [4] (symptomatic stage (10% weight loss)), the “immunofluorescent area occupied by SOD1, symptomatic mice” value is “lowest percentage of SOD1”. Further, the “microglial reactivity, Iba1 immunoreactivity” value in data set [4] (symptomatic stage, control 10.3±0.6%) is reported as 5±2.1%. In data set [5] (SOD1^G93A mice, 5 weekly sessions from P106, control 166.5 days), the “ALS mouse survival (median age)” value stood at 166 days. Further, the “early disease phase duration” value in data set [5] (peak weight to 10% weight loss, control 37.4±3.4, b130 gives the gain in days) worked out at 36.8±2.8. The “effect of IGF1 administration on survival or functional tests” value in data set [5] (whether or not associated with ultrasound, 0.5 mg/kg once a week, five injections) is “no additional effect”.
